In ChEMBL document CHEMBL1201862, “PubChem BioAssay data set” (2004):
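Dose response: 5 concentrations. Exposure: 48 h. Format: 96-well plates. Endpoint: linear interpolation; highest concentration if not reached. Abbreviation: GI50, concentration required for 50% inhibition of growth.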 Active and inactive are the calls of the source. Cut-off read from the data, not from the text of the source: active = GI50 up to about 1.1 µM and inactive = higher.

Columns and labels:
Assay in all cases: NCI anticancer screen, dose series, 48 h
[1] = system: CAKI-1
[2] = system: DU-145
[3] = system: EKVX
[4] = system: HCT-116
[5] = system: HL-60
[6] = system: IGROV-1
[7] = system: M14
[8] = system: MCF7
[9] = system: MDA-MB-435
[10] = system: MOLT-4
[11] = system: Malme-3M
[12] = system: NCI-H522
[13] = system: OVCAR-5
[14] = system: SF-268
[15] = system: SK-MEL-28
[16] = system: T47D
[17] = system: U-251
[18] = system: BT-549
[19] = system: KM12

Measured: GI50

N#Cc1nn(C2OC(COC(=O)c3ccccc3)C(OC(=O)c3ccccc3)C2OC(=O)c2ccccc2)c2nc[nH]c(=O)c12 (stereo not drawn)
inactive: [1] 38.5 µM | [2] 42.7 µM | [3] 55.7 µM | [4] 28.8 µM | [5] 34 µM | [6] 42.7 µM | [7] 46.1 µM | [8] 93.5 µM | [9] 46.2 µM | [10] 36.6 µM | [11] 36.1 µM | [12] 36.9 µM | [13] > 100 µM | [14] 43.1 µM | [15] 44.1 µM | [16] 46.2 µM | [17] 62.5 µM

CO/N=C(\C(=O)O/C(=N/C1CCCCC1)NC1CCCCC1)c1csc(NC(c2ccccc2)(c2ccccc2)c2ccccc2)n1
inactive: [18] > 10 µM | [1] > 10 µM | [2] > 10 µM | [3] > 10 µM | [4] > 10 µM | [5] > 10 µM | [6] > 10 µM | [19] > 10 µM | [7] > 10 µM | [8] > 10 µM | [10] > 10 µM | [11] > 10 µM | [12] > 10 µM | [13] > 10 µM | [14] > 10 µM | [15] > 10 µM | [16] > 10 µM | [17] > 10 µM

COC(=O)[C@@H]1CN(C(=O)CCc2ccccc2)C(=O)N1C(=O)OCc1ccccc1
inactive: [1] > 100 µM | [2] > 100 µM | [3] > 100 µM | [4] > 100 µM | [5] > 100 µM | [6] > 100 µM | [19] > 100 µM | [7] > 100 µM | [8] > 100 µM | [9] > 100 µM | [10] > 100 µM | [11] > 100 µM | [12] > 100 µM | [13] > 100 µM | [14] 40 µM | [15] > 100 µM | [16] 38.5 µM | [17] > 100 µM

CC(=O)N1NC(c2ccccc2)=CC(=O)/C1=C/C(=O)c1ccccc1
inactive: [1] 29.7 µM | [2] > 100 µM | [3] 49.2 µM | [4] 62.2 µM | [5] 35.2 µM | [6] 34.3 µM | [19] 75.5 µM | [7] 82.2 µM | [8] 43.7 µM | [9] 20.2 µM | [10] 52.5 µM | [11] 37.6 µM | [12] 15.9 µM | [13] > 100 µM | [14] 29.2 µM | [15] > 100 µM | [16] 39.3 µM | [17] > 100 µM

CC(C)CNC(=O)CCc1cccc2c1oc1c(CCN)cccc12
inactive: [1] 12.9 µM | [2] 17.9 µM | [3] 14.3 µM | [4] 9.93 µM | [5] 2.53 µM | [6] 10.2 µM | [19] 11.9 µM | [7] 15.6 µM | [8] 20.6 µM | [9] 12.2 µM | [10] 11.8 µM | [11] 16.6 µM | [12] 13.2 µM | [13] 15.1 µM | [14] 15 µM | [15] 11.5 µM | [16] 13.7 µM | [17] 5.85 µM

CC1(C)O[C@H]2OC(CO)C(N=[N+]=[N-])[C@H]2O1 (stereo partly drawn)
inactive: [1] > 100 µM | [2] > 100 µM | [3] > 100 µM | [4] > 100 µM | [5] > 100 µM | [6] > 100 µM | [19] > 100 µM | [7] > 100 µM | [8] > 100 µM | [9] > 100 µM | [10] > 100 µM | [11] > 100 µM | [12] > 100 µM | [13] > 100 µM | [14] > 100 µM | [15] > 100 µM | [16] > 100 µM | [17] > 100 µM

C=C1C(=O)O[C@H]2C[C@@]3(COC(C)=O)C=COC=C(COC(=O)C(C)C)C3CC12 (stereo partly drawn)
inactive: [18] > 100 µM | [1] 65.2 µM | [2] > 100 µM | [3] > 100 µM | [4] 37.5 µM | [5] 23.8 µM | [6] > 100 µM | [19] > 100 µM | [8] 52.4 µM | [9] 73.5 µM | [10] 28.4 µM | [11] > 100 µM | [12] 60 µM | [13] > 100 µM | [14] > 10 µM | [15] > 100 µM | [17] 29.4 µM

O=C(CC(=O)c1ccccc1)CC(O)(c1ccccc1)c1ccccc1
inactive: [1] 2.9 µM | [3] 6.1 µM | [4] 4.59 µM | [5] 2.01 µM | [19] 7.76 µM | [7] 3.61 µM | [10] 1.88 µM | [11] 11 µM | [12] 3.12 µM | [13] 11.3 µM | [14] 6.9 µM | [15] 13.1 µM | [17] 3.32 µM

COc1ccccc1Nc1nc(NNC(=O)Cc2ccccc2)nc(NNC(=O)c2ccncc2)n1
inactive: [18] > 10 µM | [1] > 10 µM | [2] > 10 µM | [3] > 10 µM | [5] > 10 µM | [6] > 10 µM | [19] > 10 µM | [7] > 10 µM | [8] > 10 µM | [10] > 10 µM | [11] > 10 µM | [14] > 10 µM | [15] > 10 µM | [16] > 10 µM | [17] > 10 µM

CC1(C)[C@@H](Cn2cnc3c(O)nc(N)nc32)CC[C@@]1(C)CO
inactive: [1] > 100 µM | [2] > 100 µM | [3] > 100 µM | [4] > 100 µM | [19] > 100 µM | [7] > 100 µM | [8] > 100 µM | [9] > 100 µM | [10] 1.34 µM | [13] > 100 µM | [14] > 100 µM | [15] > 100 µM | [16] > 100 µM | [17] > 100 µM

CC(C)(C)OC(=O)NCCc1ccc(N)cc1
inactive: [2] > 100 µM | [3] > 100 µM | [4] > 100 µM | [5] 17.5 µM | [6] > 100 µM | [7] > 100 µM | [8] > 100 µM | [9] > 100 µM | [10] 37.2 µM | [11] > 100 µM | [12] > 100 µM | [14] > 100 µM | [15] > 100 µM | [16] 74.5 µM | [17] 30.8 µM

COc1ccc(-c2cc(O)c3cc(OC)c(OC)cc3n2)cc1OC
inactive: [18] > 100 µM | [1] > 100 µM | [2] > 100 µM | [3] > 100 µM | [4] > 100 µM | [6] > 100 µM | [19] > 100 µM | [7] > 100 µM | [8] > 100 µM | [9] > 100 µM | [10] > 100 µM | [11] > 100 µM | [12] > 100 µM | [13] > 100 µM | [14] > 100 µM | [15] > 100 µM | [17] > 100 µM
